Experimental data taken from publication PMC5283680 (ACS chemical biology, 2016).
Values after ≈ are worked out from the molar mass of the structure shown. Where two headings read alike, the source gives them in different places. Positions of bridges follow the written chain, without caps; N, C: chain ends. Non-standard residues stand in square brackets, D forms with d. Residues, ends and D or L forms follow the SMILES beside them. d(aIle) = CC[C@H](C)[C@@H](N)C(=O)O; dNMeF = CN[C@H](Cc1ccccc1)C(=O)O

Experiments:
[1] = test system: Staphylococcus epidermidis ATCC 14990; format: cell-based
[2] = test system: Streptococcus salivarius ATCC 13419; format: cell-based
[3] = test system: Enterococcus durans ATCC 6056; format: cell-based
[4] = test system: Bacillus subtilis ATCC 6051; test: microbe, parasite or virus in culture; format: cell-based
[5] = test system: Escherichia coli ATCC 10798; format: cell-based
[6] = test system: four gram-positive bacteria; test: MIC assays, summary over the four gram-positive bacteria; format: cell-based; conditions: for MIC against the gram-positive bacteria studied: four gram-positive bacteria of Table 1
[7] = test system: gram-positive bacteria; conditions: MIC assays; cited from earlier work
[8] = test system: various Streptococcus; conditions: cited from earlier work
[9] = test system: E. coli; conditions: cited from earlier work
[10] = Staphylococcus epidermidis ATCC 14990, homologues as TFA salts
[11] = Streptococcus salivarius ATCC 13419, homologues as TFA salts
[12] = Enterococcus durans ATCC 6056, homologues as TFA salts
[13] = Bacillus subtilis ATCC 6051, homologues as TFA salts

Molecule | MIC ([1]; ATCC 14990) | MIC ([2]; ATCC 13419) | MIC ([3]; ATCC 6056) | MIC ([4]; ATCC 6051) | MIC [5] | MIC against the gram-positive bacteria studied [6] | MIC [1, 10] | MIC [2, 11] | MIC [3, 12] | MIC [4, 13] | other results
CC[C@H](C)[C@H](NC(=O)[C@@H](Cc1ccccc1)NC)C(=O)N[C@@H](CO)C(=O)N[C@H](CCC(N)=O)C(=O)N[C@@H](C(=O)N[C@H](C(=O)N[C@@H](CO)C(=O)N[C@H]1C(=O)N[C@@H](C)C(=O)N[C@@H](CCCNC(=N)N)C(=O)N[C@@H]([C@@H](C)CC)C(=O)O[C@H]1C)[C@@H](C)CC)[C@@H](C)CC [Arg10-teixobactin] | 1 µg/mL (≈ 0.804 µM) | 1 µg/mL (≈ 0.804 µM) | 4 µg/mL (≈ 3.21 µM) | 2 µg/mL (≈ 1.61 µM) | >32 µg/mL | 1 to 4 µg/mL | – | – | – | – | activity relative to teixobactin ([6]; comparison of own MIC with original published values in related bacteria): about an order of magnitude less active; activity relative to teixobactin [7]: about an order of magnitude less active
teixobactin | – | – | – | – | – | – | – | – | – | – | MIC [8]: 0.02 to 0.15 µg/mL; MIC [9]: 25 µg/mL
ent-Arg10-teixobactin | – | – | – | – | – | – | 2 µg/mL | 1 µg/mL | 4 µg/mL | 2 µg/mL | activity relative to Arg10-teixobactin ([6]; gram-positive bacteria, MIC): comparable activity
CC[C@H](C)[C@H](NC(=O)[C@@H](Cc1ccccc1)NC)C(=O)N[C@@H](CO)C(=O)N[C@H](CCC(N)=O)C(=O)N[C@@H](C(=O)N[C@H](C(=O)N[C@@H](CO)C(=O)N[C@H]1C(=O)N[C@@H](C)C(=O)N[C@@H](CCCCN)C(=O)N[C@@H]([C@@H](C)CC)C(=O)O[C@H]1C)[C@@H](C)CC)[C@@H](C)CC [Lys10-teixobactin] (H-[dNMeF]IS[dQ][d(aIle)]IS[dT]AKI; ester 8-C (inferred); N-terminus assumed) | 0.25 µg/mL (≈ 0.206 µM) | 0.5 µg/mL (≈ 0.411 µM) | 1 µg/mL (≈ 0.822 µM) | 0.5 µg/mL (≈ 0.411 µM) | >32 µg/mL | – | – | – | – | – | MIC values, times lower than Arg10-teixobactin ([6]; gram-positive bacteria, relative to Arg10-teixobactin): 2–4 times
CN[C@H](CC(C)C)C(=O)N[C@H]1C(=O)N[C@@H](CC(N)=O)C(=O)N[C@H]2C(=O)N[C@H]3C(=O)N[C@H](C(=O)N[C@H](C(=O)O)c4cc(O)cc(O)c4-c4cc3ccc4O)[C@H](O)c3ccc(c(Cl)c3)Oc3cc2cc(c3O[C@@H]2O[C@H](CO)[C@@H](O)[C@H](O)[C@H]2O[C@H]2C[C@](C)(N)[C@H](O)[C@H](C)O2)Oc2ccc(cc2Cl)[C@H]1O [vancomycin, reference compound] | – | – | – | – | – | – | – | – | – | – | MIC ([4]; Bacillus subtilis, ATCC6051): 1 µg/mL (≈ 0.69 µM)
seco-Arg10-teixobactin | – | – | – | – | – | > 32 µg/mL | >32 µg/mL | >32 µg/mL | >32 µg/mL | >32 µg/mL | –
